# Measured values published in publication PMC3161034 (BMC Cancer, 2011).
# Like-named read-outs stand apart in the source and are kept apart here. Marks after values point to notes of the source that are not given here.
# Legend:
# [1] = test system: patients with solid tumors; assay: Adverse events graded by CTCAE version 3.0, relatedness by investigator; format: in vivo, human
# Protocol: Cohort enrollment could be expanded to ensure that at least 6 evaluable patients were enrolled or in the event of unresolved safety, pharmacokinetic, or other concerns. The overall sample size could be further increased if additional dose cohorts were considered justified based on the results from the dose-escalation portion of the study. For continuous endpoints, the mean, standard error or standard deviation (SD); median; 25th and 75th percentiles; and minimum and maximum were calculated. For discrete data, the frequency and percent distributions were calculated. No formal comparisons between cohorts were performed. The data were analyzed using SAS software version 8.2 (SAS Institute, Cary, NC). […] The safety analysis set included all patients who received at least 1 dose of study therapy.
# [2] = Motesanib plasma pharmacokinetics (LC-MS/MS, noncompartmental); design: species or system human; details: in vivo; for half-life / Tmax / AUC(0-t) / concentration at 24 h / Cmax: human; for AUC(0-t) / concentration at 24 h / Cmax: week 3; for AUC(0-t): read-out: AUC0–24, median; for concentration at 24 h: read-out: C24, median; for Cmax: read-out: Cmax, median
# Protocol: Plasma concentrations of motesanib were analyzed using a validated liquid chromatography/tandem mass spectrometry (LC-MS/MS) method with a lower limit of quantitation (LLOQ) of 0.2 ng/mL (Cedra Corp., Austin, TX).
# Pharmacokinetic parameter estimates were calculated according to standard noncompartmental methods using WinNonlin software (version 5.1.1; Pharsight Corporation, Mountain View, CA) and summarized by dose level. […] For the BID cohort, AUC0—24 values for motesanib were determined by 2 × AUC0—12. The terminal elimination rate constant (λZ) was determined by linear regression of the natural logarithms of plasma concentrations versus time during the terminal phase; the corresponding t1/2 was calculated.
# [3] = test system: cytochrome P450 (CYP) 3A4; details: cited from earlier work
# [4] = test system: patients with solid tumours; design: method as in PMID 18971935; details: in combination with gemcitabine; cited from earlier work
# [5] = motesanib 50 mg QD + gemcitabine + erlotinib 100 mg QD, n = 7
# [6] = motesanib 75 mg BID + gemcitabine + erlotinib 100 mg QD, n = 9
# [7] = motesanib 100 mg QD + erlotinib 150 mg QD, n = 7
# [8] = motesanib 100 mg QD + gemcitabine + erlotinib 100 mg QD, n = 8
# [9] = 125 mg QD motesanib + 100 mg QD erlotinib + gemcitabine
# [10] = 125 mg QD motesanib + 150 mg QD erlotinib
smiles,measurement,setting,value
CC1(C)CNc2cc(NC(=O)c3cccnc3NCc3ccncc3)ccc21 [motesanib],Patients with grade ≥ 3 motesanib-related adverse events,[1]; all motesanib cohorts,Twenty-three
same,Grade 5 motesanib-related adverse events,"[1]; human, in vivo",No grade 5 motesanib-related adverse events occurred
same,Motesanib-related diarrhea,"[1]; human, in vivo",19 n
same,Motesanib-related fatigue,"[1]; human, in vivo",12 n
same,Motesanib-related nausea,"[1]; human, in vivo",18 n
same,Motesanib-related vomiting,"[1]; human, in vivo",13 n
same,Patients discontinuing treatment with the drug because of adverse events,"[1]; human, in vivo",9 n
same,Serious motesanib-related deep vein thrombosis,"[1]; human, in vivo",2 n
same,Serious motesanib-related diarrhea,"[1]; human, in vivo",2 n
same,Serious motesanib-related nausea,"[1]; human, in vivo",5 n
same,Serious motesanib-related pulmonary embolism,"[1]; human, in vivo",2 n
same,Serious motesanib-related tumor necrosis,"[1]; human, in vivo",2 n
same,Serious motesanib-related vomiting,"[1]; human, in vivo",5 n
same,"Abnormal liver function test, grade 3 (motesanib-related)",[1]; [5],0 n
same,"Adverse events of grade 3, n (motesanib-related)",[1]; [5],0 n
same,"Adverse events of grade 4, n (Pulmonary)",[1]; [5],1 n
same,"Any adverse event, n (motesanib-related)",[1]; [5],3 n
same,Cardiac toxicity (all grade 3),[1]; [5],0 n
same,"Deep vein thrombosis, grade 3 (motesanib-related)",[1]; [5],0 n
same,"Diarrhea, grade 3 (motesanib-related)",[1]; [5],0 n
same,"Fatigue, grade 3 (motesanib-related)",[1]; [5],0 n
same,"Febrile neutropenia, grade 4 (motesanib-related)",[1]; [5],1 n
same,Gallbladder toxicity,[1]; [5],0 n
same,"Gallbladder toxicity, Grade 3",[1]; [5],0 n
same,Hemorrhagic events,[1]; [5],0 n
same,"Hemorrhagic events, Grade 3",[1]; [5],0 n
same,"Hypertension, highest (worst) grade: Grade 3",[1]; [5],0 n
same,"Nausea, grade 3 (motesanib-related)",[1]; [5],0 n
same,"Neutropenia, grade 3 (motesanib-related)",[1]; [5],0 n
same,"Neutropenia, grade 4 (motesanib-related)",[1]; [5],0 n
same,"Pulmonary embolism, grade 4 (motesanib-related)",[1]; [5],0 n
same,Thrombophlebitis (all grade 3),[1]; [5],0 n
same,"Tumor necrosis, grade 3 (motesanib-related)",[1]; [5],0 n
same,"Vomiting, grade 3 (motesanib-related)",[1]; [5],0 n
same,"Abnormal liver function test, grade 3 (motesanib-related)",[1]; [6],0 n
same,"Adverse events of grade 3, n (motesanib-related)",[1]; [6],3 n
same,"Adverse events of grade 4, n (Pulmonary)",[1]; [6],1 n
same,"Any adverse event, n (motesanib-related)",[1]; [6],7 n
same,Cardiac toxicity (all grade 3),[1]; [6],0 n
same,"Deep vein thrombosis, grade 3 (motesanib-related)",[1]; [6],0 n
same,"Diarrhea, grade 3 (motesanib-related)",[1]; [6],0 n
same,"Fatigue, grade 3 (motesanib-related)",[1]; [6],0 n
same,"Febrile neutropenia, grade 4 (motesanib-related)",[1]; [6],0 n
same,Gallbladder toxicity,[1]; [6],0 n
same,"Gallbladder toxicity, Grade 3",[1]; [6],0 n
same,Hemorrhagic events,[1]; [6],0 n
same,"Hemorrhagic events, Grade 3",[1]; [6],0 n
same,"Hypertension, highest (worst) grade: Grade 3",[1]; [6],0 n
same,"Nausea, grade 3 (motesanib-related)",[1]; [6],1 n
same,"Neutropenia, grade 3 (motesanib-related)",[1]; [6],0 n
same,"Neutropenia, grade 4 (motesanib-related)",[1]; [6],1 n
same,"Pulmonary embolism, grade 4 (motesanib-related)",[1]; [6],0 n
same,Thrombophlebitis (all grade 3),[1]; [6],0 n
same,"Tumor necrosis, grade 3 (motesanib-related)",[1]; [6],1 n
same,"Vomiting, grade 3 (motesanib-related)",[1]; [6],0 n
same,"Abnormal liver function test, grade 3 (motesanib-related)",[1]; [7],0 n
same,"Adverse events of grade 3, n (motesanib-related)",[1]; [7],3 n
same,"Adverse events of grade 4, n (Pulmonary)",[1]; [7],0 n
same,"Any adverse event, n (motesanib-related)",[1]; [7],7 n
same,Cardiac toxicity (all grade 3),[1]; [7],0 n
same,"Deep vein thrombosis, grade 3 (motesanib-related)",[1]; [7],0 n
same,"Diarrhea, grade 3 (motesanib-related)",[1]; [7],2 n
same,"Fatigue, grade 3 (motesanib-related)",[1]; [7],0 n
same,"Febrile neutropenia, grade 4 (motesanib-related)",[1]; [7],0 n
same,"Gallbladder toxicity, Grade 3",[1]; [7],0 n
same,"Hemorrhagic events, Grade 3",[1]; [7],0 n
same,"Hypertension, highest (worst) grade: Grade 3",[1]; [7],0 n
same,"Nausea, grade 3 (motesanib-related)",[1]; [7],0 n
same,"Neutropenia, grade 3 (motesanib-related)",[1]; [7],1 n
same,"Neutropenia, grade 4 (motesanib-related)",[1]; [7],0 n
same,"Pulmonary embolism, grade 4 (motesanib-related)",[1]; [7],0 n
same,Thrombophlebitis (all grade 3),[1]; [7],0 n
same,"Tumor necrosis, grade 3 (motesanib-related)",[1]; [7],1 n
same,"Vomiting, grade 3 (motesanib-related)",[1]; [7],0 n
same,Hemorrhagic events,"[1]; motesanib 100 mg QD + erlotinib 150 mg QD, n = 7, epistaxis (grade 1)",1^e n
same,Gallbladder toxicity,"[1]; motesanib 100 mg QD + erlotinib 150 mg QD, n = 7, gallbladder enlargement (grade 2)",1^c n
same,"Abnormal liver function test, grade 3 (motesanib-related)",[1]; [8],1 n
same,"Adverse events of grade 3, n (motesanib-related)",[1]; [8],3 n
same,"Adverse events of grade 4, n (Pulmonary)",[1]; [8],0 n
same,"Any adverse event, n (motesanib-related)",[1]; [8],8 n
same,"Deep vein thrombosis, grade 3 (motesanib-related)",[1]; [8],0 n
same,"Diarrhea, grade 3 (motesanib-related)",[1]; [8],1 n
same,"Fatigue, grade 3 (motesanib-related)",[1]; [8],1 n
same,"Febrile neutropenia, grade 4 (motesanib-related)",[1]; [8],0 n
same,Gallbladder toxicity,[1]; [8],0 n
same,"Gallbladder toxicity, Grade 3",[1]; [8],0 n
same,Hemorrhagic events,[1]; [8],0 n
same,"Hemorrhagic events, Grade 3",[1]; [8],0 n
same,"Hypertension, highest (worst) grade: Grade 3",[1]; [8],0 n
same,"Nausea, grade 3 (motesanib-related)",[1]; [8],0 n
same,"Neutropenia, grade 3 (motesanib-related)",[1]; [8],1 n
same,"Neutropenia, grade 4 (motesanib-related)",[1]; [8],0 n
same,"Pulmonary embolism, grade 4 (motesanib-related)",[1]; [8],0 n
same,Thrombophlebitis (all grade 3),[1]; [8],0 n
same,"Tumor necrosis, grade 3 (motesanib-related)",[1]; [8],0 n
same,"Vomiting, grade 3 (motesanib-related)",[1]; [8],1 n
same,Cardiac toxicity (all grade 3),"[1]; motesanib 100 mg QD + gemcitabine + erlotinib 100 mg QD, n = 8, congestive heart failure and pulmonary edema",1^f n
same,half-life,"[2]; 100 mg, read-out: Mean estimated terminal elimination half-life (t1/2, z)",4.8 to 8.6 h
same,Tmax,"[2]; 100 mg, read-out: Overall median tmax",0.6 to 2 h
same,Tmax,[2]; 150 mg,2 h
same,half-life,[2]; 150 mg,6 to 7.7 h
same,AUC(0-t),[2]; [9],4770 ng·h/mL
same,concentration at 24 h,[2]; [9],37 ng/mL
same,Cmax,[2]; [9],655 ng/mL
same,AUC(0-t),[2]; [10],3120 ng·h/mL
same,concentration at 24 h,[2]; [10],44.7 ng/mL
same,Cmax,[2]; [10],443 ng/mL
same,Effect of combination on motesanib pharmacokinetics,[2],not markedly affected
same,Effect on CYP3A4,[3],inhibitor
same,Target dose,[4],125 mg QD
